Measurements published in PubChem BioAssay AID2060484 (Molecular Pharmacology Branch, DTP, NCI, 2025).

Test system: SUM149PT spheroids with HUVEC/MSC, viability
Assay: Anticancer human tumor SUM149PT cell line growth inhibition [GQUAD];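 also: spheroids exposed to drugs for seven days before readout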;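 as to viability, T/C: percent viability relative to DMSO vehicle control taken as 100%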
Details: for IC50: curve of first compound; for viability, T/C: stronger effect = lower value
How it was run: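 Multi-cell-type spheroids of tumor cells with HUVEC and mesenchymal stem cells, treated with drug combinations. Concentrations descend in half-log steps from near clinical Cmax, or from 10 microM where Cmax is unknown; viability read-out.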

[1] = second compound 0.0316 µM, first compound 0.0316 µM
[2] = second compound 0.0316 µM, first compound 0.1 µM
[3] = second compound 0.0316 µM, first compound 0.316 µM
[4] = second compound 0.0316 µM, first compound 1 µM
[5] = second compound 0.0316 µM, first compound 3.16 µM
[6] = second compound 0.0316 µM, first compound 10 µM
[7] = second compound 0.1 µM, first compound 0.0316 µM
[8] = second compound 0.1 µM, first compound 0.1 µM
[9] = second compound 0.1 µM, first compound 0.316 µM
[10] = second compound 0.1 µM, first compound 1 µM
[11] = second compound 0.1 µM, first compound 3.16 µM
[12] = second compound 0.1 µM, first compound 10 µM
[13] = second compound 0.316 µM, first compound 0.0316 µM
[14] = second compound 0.316 µM, first compound 0.1 µM
[15] = second compound 0.316 µM, first compound 0.316 µM
[16] = second compound 0.316 µM, first compound 1 µM
[17] = second compound 0.316 µM, first compound 3.16 µM
[18] = second compound 0.316 µM, first compound 10 µM
[19] = second compound 1 µM, first compound 0.0316 µM
[20] = second compound 1 µM, first compound 0.1 µM
[21] = second compound 1 µM, first compound 0.316 µM
[22] = second compound 1 µM, first compound 1 µM
[23] = second compound 1 µM, first compound 3.16 µM
[24] = second compound 1 µM, first compound 10 µM
[25] = second compound 3.16 µM, first compound 0.0316 µM
[26] = second compound 3.16 µM, first compound 0.1 µM
[27] = second compound 3.16 µM, first compound 0.316 µM
[28] = second compound 3.16 µM, first compound 1 µM
[29] = second compound 3.16 µM, first compound 3.16 µM
[30] = second compound 3.16 µM, first compound 10 µM
[31] = second compound 10 µM, first compound 0.0316 µM
[32] = second compound 10 µM, first compound 0.1 µM
[33] = second compound 10 µM, first compound 0.316 µM
[34] = second compound 10 µM, first compound 1 µM
[35] = second compound 10 µM, first compound 3.16 µM
[36] = second compound 10 µM, first compound 10 µM

COc1cc(C2c3cc4c(cc3C(OC3OC5COC(C)OC5C(O)C3O)C3COC(=O)C23)OCO4)cc(OC)c1O (stereo unspecified) + CN(C)c1ccc(Nc2c3ccc(NC(=O)CCN4CCCC4)cc3nc3cc(NC(=O)CCN4CCCC4)ccc23)cc1
IC50 (second compound 0.0316 µM): 1.27 µM
IC50 (second compound 0.1 µM): 1.26 µM
IC50 (second compound 0.316 µM): 1.31 µM
IC50 (second compound 1 µM): 0.732 µM
IC50 (second compound 3.16 µM): 0.652 µM
IC50 (second compound 10 µM): 0.619 µM
viability, T/C [1]: 107%
viability, T/C [2]: 84.8%
viability, T/C [3]: 62.9%
viability, T/C [4]: 55.2%
viability, T/C [5]: 44.8%
viability, T/C [6]: 21.6%
viability, T/C [7]: 102%
viability, T/C [8]: 88.8%
viability, T/C [9]: 59.5%
viability, T/C [10]: 55%
viability, T/C [11]: 44.7%
viability, T/C [12]: 21.4%
viability, T/C [13]: 87.8%
viability, T/C [14]: 78.1%
viability, T/C [15]: 59.8%
viability, T/C [16]: 59.5%
viability, T/C [17]: 40.2%
viability, T/C [18]: 18.1%
viability, T/C [19]: 87.4%
viability, T/C [20]: 75.3%
viability, T/C [21]: 54.4%
viability, T/C [22]: 48.1%
viability, T/C [23]: 36.8%
viability, T/C [24]: 20.5%
viability, T/C [25]: 86.6%
viability, T/C [26]: 74.6%
viability, T/C [27]: 49.7%
viability, T/C [28]: 48%
viability, T/C [29]: 37.4%
viability, T/C [30]: 17.6%
viability, T/C [31]: 85.9%
viability, T/C [32]: 68.5%
viability, T/C [33]: 49.1%
viability, T/C [34]: 48.7%
viability, T/C [35]: 41%
viability, T/C [36]: 18.3%

CC1COCCN1c1cc(C2(S(C)(=N)=O)CC2)nc(-c2ccnc3[nH]ccc23)n1 (stereo unspecified) + Cc1cnc(CNC(=O)c2c(=O)c3ccc(N4CCCN(C)CC4)nc3n3c2sc2ccccc23)cn1
IC50 (second compound 0.0316 µM): 0.249 µM
IC50 (second compound 0.1 µM): 0.164 µM
IC50 (second compound 0.316 µM): 0.0979 µM
IC50 (second compound 1 µM): < 0.0316 µM
IC50 (second compound 3.16 µM): < 0.0316 µM
IC50 (second compound 10 µM): < 0.0316 µM
viability, T/C [1]: 87%
viability, T/C [2]: 71.1%
viability, T/C [3]: 44.9%
viability, T/C [4]: 25.8%
viability, T/C [5]: 31.5%
viability, T/C [6]: 17.7%
viability, T/C [7]: 59.8%
viability, T/C [8]: 57.9%
viability, T/C [9]: 38.6%
viability, T/C [10]: 23.7%
viability, T/C [11]: 36%
viability, T/C [12]: 17.9%
viability, T/C [13]: 57.3%
viability, T/C [14]: 48.9%
viability, T/C [15]: 41.4%
viability, T/C [16]: 27.2%
viability, T/C [17]: 29.2%
viability, T/C [18]: 22.5%
viability, T/C [19]: 45.9%
viability, T/C [20]: 46%
viability, T/C [21]: 42.9%
viability, T/C [22]: 31.8%
viability, T/C [23]: 37.1%
viability, T/C [24]: 21.3%
viability, T/C [25]: 36.9%
viability, T/C [26]: 37.7%
viability, T/C [27]: 36.2%
viability, T/C [28]: 31.1%
viability, T/C [29]: 33.7%
viability, T/C [30]: 20.4%
viability, T/C [31]: 0.72%
viability, T/C [32]: 0.21%
viability, T/C [33]: 0.33%
viability, T/C [34]: 0.28%
viability, T/C [35]: 0.77%
viability, T/C [36]: 1.29%

C=CCn1c(=O)c2cnc(Nc3ccc(N4CCN(C)CC4)cc3)nc2n1-c1cccc(C(C)(C)O)n1 + CN(C)c1ccc(Nc2c3ccc(NC(=O)CCN4CCCC4)cc3nc3cc(NC(=O)CCN4CCCC4)ccc23)cc1
IC50 (second compound 0.0316 µM): 0.196 µM
IC50 (second compound 0.1 µM): 0.174 µM
IC50 (second compound 0.316 µM): 0.155 µM
IC50 (second compound 1 µM): 0.102 µM
IC50 (second compound 3.16 µM): 0.121 µM
IC50 (second compound 10 µM): 0.13 µM
viability, T/C [1]: 93.8%
viability, T/C [2]: 72.7%
viability, T/C [3]: 32.3%
viability, T/C [4]: 19.8%
viability, T/C [5]: 11.4%
viability, T/C [6]: 7.42%
viability, T/C [7]: 92.8%
viability, T/C [8]: 69.2%
viability, T/C [9]: 28.1%
viability, T/C [10]: 20.1%
viability, T/C [11]: 9.53%
viability, T/C [12]: 9.35%
viability, T/C [13]: 95.8%
viability, T/C [14]: 62.1%
viability, T/C [15]: 30%
viability, T/C [16]: 16.4%
viability, T/C [17]: 8.18%
viability, T/C [18]: 6.73%
viability, T/C [19]: 78%
viability, T/C [20]: 50.4%
viability, T/C [21]: 28.5%
viability, T/C [22]: 16.4%
viability, T/C [23]: 9.65%
viability, T/C [24]: 7.97%
viability, T/C [25]: 87.7%
viability, T/C [26]: 54.1%
viability, T/C [27]: 29.4%
viability, T/C [28]: 17.9%
viability, T/C [29]: 7.8%
viability, T/C [30]: 7.28%
viability, T/C [31]: 89.1%
viability, T/C [32]: 56.6%
viability, T/C [33]: 28%
viability, T/C [34]: 17.1%
viability, T/C [35]: 9.36%
viability, T/C [36]: 8.81%
